Test results published in PubChem BioAssay (NCI).
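Following 48 hours of exposure in 96-well plates, responses at five concentrations were used to interpolate endpoints linearly. The concentration for full growth arrest is given as TGI.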

What was measured:
Assay in all cases: DTP human tumour cell line panel, 48 h
SW-620 colon = tested on: SW-620 colon
SF-268 CNS = tested on: SF-268 CNS
PC-3 prostate = tested on: PC-3 prostate
OVCAR-3 ovarian = tested on: OVCAR-3 ovarian
CAKI-1 renal = tested on: CAKI-1 renal
UACC-257 melanoma = tested on: UACC-257 melanoma
HCT-116 colon = tested on: HCT-116 colon
MOLT-4 leukemia = tested on: MOLT-4 leukemia
HS 578T breast = tested on: HS 578T breast
SK-OV-3 ovarian = tested on: SK-OV-3 ovarian
HCT-15 colon = tested on: HCT-15 colon
NCI-H460 lung = tested on: NCI-H460 lung
HL-60(TB) leukemia = tested on: HL-60(TB) leukemia
HT29 colon = tested on: HT29 colon
HOP-62 NSCLC = tested on: HOP-62 NSCLC
TK-10 renal = tested on: TK-10 renal
KM12 colon = tested on: KM12 colon
OVCAR-8 ovarian = tested on: OVCAR-8 ovarian
A498 renal = tested on: A498 renal
LOX IMVI melanoma = tested on: LOX IMVI melanoma
SNB-75 CNS = tested on: SNB-75 CNS
SF-295 CNS = tested on: SF-295 CNS
NCI/ADR-RES ovarian = tested on: NCI/ADR-RES ovarian
SF-539 CNS = tested on: SF-539 CNS
NCI-H522 lung = tested on: NCI-H522 lung
OVCAR-5 ovarian = tested on: OVCAR-5 ovarian
RXF 393 renal = tested on: RXF 393 renal
IGROV1 ovarian = tested on: IGROV1 ovarian
UO-31 renal = tested on: UO-31 renal
DU-145 prostate = tested on: DU-145 prostate
SN12C renal = tested on: SN12C renal
T-47D breast = tested on: T-47D breast
SR leukemia = tested on: SR leukemia
M14 melanoma = tested on: M14 melanoma
A549 NSCLC = tested on: A549 NSCLC
U251 CNS = tested on: U251 CNS
MCF7 breast = tested on: MCF7 breast
RPMI-8226 leukemia = tested on: RPMI-8226 leukemia
UACC-62 melanoma = tested on: UACC-62 melanoma
SK-MEL-28 melanoma = tested on: SK-MEL-28 melanoma
786-0 renal = tested on: 786-0 renal
OVCAR-4 ovarian = tested on: OVCAR-4 ovarian
SK-MEL-2 melanoma = tested on: SK-MEL-2 melanoma
MDA-MB-231 breast = tested on: MDA-MB-231 breast
HOP-92 NSCLC = tested on: HOP-92 NSCLC
NCI-H23 lung = tested on: NCI-H23 lung
BT-549 breast = tested on: BT-549 breast
SK-MEL-5 melanoma = tested on: SK-MEL-5 melanoma
EKVX NSCLC = tested on: EKVX NSCLC
ACHN renal = tested on: ACHN renal
MDA-N = tested on: MDA-N
MDA-MB-435 = tested on: MDA-MB-435
HCC-2998 colon = tested on: HCC-2998 colon
COLO 205 colon = tested on: COLO 205 colon
NCI-H226 lung = tested on: NCI-H226 lung
K-562 leukemia = tested on: K-562 leukemia
CCRF-CEM leukemia = tested on: CCRF-CEM leukemia
SNB-19 CNS = tested on: SNB-19 CNS
MALME-3M melanoma = tested on: MALME-3M melanoma

Work on `C/C=C(\C)C(=O)OC1CC(OC(C)=O)C2(C(=O)OC)COC3C2C1(C)C1C2(C(=O)OC)OCC1(C3O)C1(O)C3CC(C4(O)C=COC4O3)C1(C)O2` (stereo unspecified) yielded a TGI (SW-620 colon) greater than 100 µM, a TGI (SF-268 CNS) greater than 100 µM and a TGI (PC-3 prostate) greater than 100 µM. For the same molecule, the TGI (OVCAR-3 ovarian) was greater than 100 µM, the TGI (CAKI-1 renal) was greater than 100 µM and the TGI (UACC-257 melanoma) was greater than 100 µM. The TGI (HCT-116 colon) was greater than 100 µM, the TGI (MOLT-4 leukemia) was greater than 100 µM and the TGI (HS 578T breast) was greater than 100 µM. It also gave a TGI (SK-OV-3 ovarian) greater than 100 µM, a TGI (HCT-15 colon) greater than 100 µM and a TGI (NCI-H460 lung) greater than 100 µM. The TGI (HL-60(TB) leukemia) was greater than 100 µM, the TGI (HT29 colon) was greater than 100 µM and the TGI (HOP-62 NSCLC) was greater than 100 µM. For the same molecule, the TGI (TK-10 renal) was greater than 100 µM, the TGI (KM12 colon) was greater than 100 µM and the TGI (OVCAR-8 ovarian) was greater than 100 µM. The TGI (A498 renal) was greater than 100 µM, the TGI (LOX IMVI melanoma) was greater than 100 µM and the TGI (SNB-75 CNS) was greater than 100 µM. For the same molecule, the TGI (SF-295 CNS) was greater than 100 µM, the TGI (NCI/ADR-RES ovarian) was greater than 100 µM and the TGI (SF-539 CNS) was greater than 100 µM. For the same molecule, the TGI (NCI-H522 lung) was greater than 100 µM, the TGI (OVCAR-5 ovarian) was greater than 100 µM and the TGI (RXF 393 renal) was greater than 100 µM. For the same molecule, the TGI (IGROV1 ovarian) was greater than 100 µM, the TGI (UO-31 renal) was greater than 100 µM and the TGI (DU-145 prostate) was greater than 100 µM. It also gave a TGI (SN12C renal) greater than 100 µM, a TGI (T-47D breast) greater than 100 µM and a TGI (SR leukemia) greater than 100 µM. It also gave a TGI (M14 melanoma) greater than 100 µM, a TGI (A549 NSCLC) greater than 100 µM and a TGI (U251 CNS) greater than 100 µM. It also gave a TGI (MCF7 breast) greater than 100 µM, a TGI (RPMI-8226 leukemia) greater than 100 µM and a TGI (UACC-62 melanoma) greater than 100 µM. For the same molecule, the TGI (SK-MEL-28 melanoma) was greater than 100 µM, the TGI (786-0 renal) was greater than 100 µM and the TGI (OVCAR-4 ovarian) was greater than 100 µM. It also gave a TGI (SK-MEL-2 melanoma) greater than 100 µM, a TGI (MDA-MB-231 breast) greater than 100 µM and a TGI (HOP-92 NSCLC) greater than 100 µM. The TGI (NCI-H23 lung) was greater than 100 µM, the TGI (BT-549 breast) was greater than 100 µM and the TGI (SK-MEL-5 melanoma) was greater than 100 µM. The TGI (EKVX NSCLC) was greater than 100 µM, the TGI (ACHN renal) was greater than 100 µM and the TGI (MDA-N) was greater than 100 µM. For the same molecule, the TGI (MDA-MB-435) was greater than 100 µM, the TGI (HCC-2998 colon) was greater than 100 µM and the TGI (COLO 205 colon) was greater than 100 µM. The TGI (NCI-H226 lung) was greater than 100 µM and the TGI (K-562 leukemia) was greater than 100 µM.
`O=C(c1ccccc1)c1ccc2nc(-c3c(Cl)c(Cl)c(Cl)c(Cl)c3-c3nnc(-c4ccccc4)o3)[nH]c2c1` showed a TGI (SW-620 colon) greater than 100 µM, a TGI (SF-268 CNS) greater than 100 µM and a TGI (PC-3 prostate) greater than 100 µM. For the same molecule, the TGI (OVCAR-3 ovarian) was greater than 100 µM, the TGI (CAKI-1 renal) was greater than 100 µM and the TGI (UACC-257 melanoma) was greater than 100 µM. For the same molecule, the TGI (HCT-116 colon) was greater than 100 µM, the TGI (MOLT-4 leukemia) was greater than 100 µM and the TGI (HS 578T breast) was greater than 100 µM. The TGI (SK-OV-3 ovarian) was greater than 100 µM, the TGI (HCT-15 colon) was greater than 100 µM and the TGI (HL-60(TB) leukemia) was greater than 100 µM. The TGI (HT29 colon) was greater than 100 µM, the TGI (HOP-62 NSCLC) was greater than 100 µM and the TGI (TK-10 renal) was greater than 100 µM. The TGI (KM12 colon) was greater than 100 µM, the TGI (OVCAR-8 ovarian) was greater than 100 µM and the TGI (A498 renal) was 78.4 µM. For the same molecule, the TGI (CCRF-CEM leukemia) was greater than 100 µM, the TGI (LOX IMVI melanoma) was greater than 100 µM and the TGI (SNB-75 CNS) was 84.4 µM. The TGI (SF-295 CNS) was 73.9 µM, the TGI (NCI/ADR-RES ovarian) was greater than 100 µM and the TGI (SF-539 CNS) was greater than 100 µM. The TGI (NCI-H522 lung) was 55.7 µM, the TGI (OVCAR-5 ovarian) was greater than 100 µM and the TGI (RXF 393 renal) was 47.1 µM. For the same molecule, the TGI (IGROV1 ovarian) was greater than 100 µM, the TGI (UO-31 renal) was greater than 100 µM and the TGI (DU-145 prostate) was greater than 100 µM. The TGI (SN12C renal) was 81.7 µM, the TGI (T-47D breast) was greater than 100 µM and the TGI (SR leukemia) was 50.2 µM. It also gave a TGI (M14 melanoma) greater than 100 µM, a TGI (A549 NSCLC) greater than 100 µM and a TGI (U251 CNS) greater than 100 µM. For the same molecule, the TGI (MCF7 breast) was greater than 100 µM, the TGI (RPMI-8226 leukemia) was greater than 100 µM and the TGI (SNB-19 CNS) was greater than 100 µM. It also gave a TGI (SK-MEL-28 melanoma) greater than 100 µM, a TGI (786-0 renal) greater than 100 µM and a TGI (OVCAR-4 ovarian) greater than 100 µM. For the same molecule, the TGI (SK-MEL-2 melanoma) was greater than 100 µM, the TGI (MDA-MB-231 breast) was greater than 100 µM and the TGI (HOP-92 NSCLC) was greater than 100 µM. The TGI (NCI-H23 lung) was greater than 100 µM, the TGI (BT-549 breast) was greater than 100 µM and the TGI (SK-MEL-5 melanoma) was 54.1 µM. It also gave a TGI (EKVX NSCLC) greater than 100 µM, a TGI (MALME-3M melanoma) greater than 100 µM and a TGI (ACHN renal) greater than 100 µM. The TGI (MDA-N) was 15.5 µM, the TGI (MDA-MB-435) was greater than 100 µM and the TGI (COLO 205 colon) was greater than 100 µM. It also gave a TGI (NCI-H226 lung) of 97.7 µM and a TGI (K-562 leukemia) greater than 100 µM.
`Clc1sc(Cl)c2c1[C@@H](Cl)C[C@@H]2Cl` was tested, and the TGI (SW-620 colon) was greater than 100 µM, the TGI (SF-268 CNS) was greater than 100 µM and the TGI (OVCAR-3 ovarian) was greater than 100 µM. It also gave a TGI (CAKI-1 renal) greater than 100 µM, a TGI (UACC-257 melanoma) greater than 100 µM and a TGI (HCT-116 colon) greater than 100 µM. The TGI (MOLT-4 leukemia) was greater than 100 µM, the TGI (HS 578T breast) was greater than 100 µM and the TGI (SK-OV-3 ovarian) was greater than 100 µM. For the same molecule, the TGI (HCT-15 colon) was greater than 100 µM, the TGI (NCI-H460 lung) was greater than 100 µM and the TGI (HT29 colon) was greater than 100 µM. It also gave a TGI (HOP-62 NSCLC) greater than 100 µM, a TGI (TK-10 renal) greater than 100 µM and a TGI (KM12 colon) greater than 100 µM. It also gave a TGI (OVCAR-8 ovarian) greater than 100 µM, a TGI (A498 renal) greater than 100 µM and a TGI (CCRF-CEM leukemia) greater than 100 µM. The TGI (LOX IMVI melanoma) was greater than 100 µM, the TGI (SNB-75 CNS) was greater than 100 µM and the TGI (SF-295 CNS) was greater than 100 µM. It also gave a TGI (NCI/ADR-RES ovarian) greater than 100 µM, a TGI (SF-539 CNS) greater than 100 µM and a TGI (NCI-H522 lung) of 58.2 µM. It also gave a TGI (OVCAR-5 ovarian) greater than 100 µM, a TGI (IGROV1 ovarian) greater than 100 µM and a TGI (UO-31 renal) greater than 100 µM. The TGI (DU-145 prostate) was greater than 100 µM, the TGI (SN12C renal) was greater than 100 µM and the TGI (T-47D breast) was greater than 100 µM. For the same molecule, the TGI (SR leukemia) was greater than 100 µM, the TGI (M14 melanoma) was greater than 100 µM and the TGI (A549 NSCLC) was greater than 100 µM. The TGI (U251 CNS) was greater than 100 µM, the TGI (MCF7 breast) was greater than 100 µM and the TGI (UACC-62 melanoma) was greater than 100 µM. The TGI (SK-MEL-28 melanoma) was greater than 100 µM, the TGI (786-0 renal) was greater than 100 µM and the TGI (OVCAR-4 ovarian) was greater than 100 µM. For the same molecule, the TGI (SK-MEL-2 melanoma) was greater than 100 µM, the TGI (MDA-MB-231 breast) was greater than 100 µM and the TGI (HOP-92 NSCLC) was greater than 100 µM. For the same molecule, the TGI (NCI-H23 lung) was greater than 100 µM, the TGI (BT-549 breast) was greater than 100 µM and the TGI (SK-MEL-5 melanoma) was greater than 100 µM. For the same molecule, the TGI (EKVX NSCLC) was greater than 100 µM, the TGI (MALME-3M melanoma) was greater than 100 µM and the TGI (ACHN renal) was greater than 100 µM. It also gave a TGI (MDA-N) greater than 100 µM, a TGI (MDA-MB-435) greater than 100 µM and a TGI (HCC-2998 colon) greater than 100 µM. For the same molecule, the TGI (COLO 205 colon) was greater than 100 µM, the TGI (NCI-H226 lung) was greater than 100 µM and the TGI (K-562 leukemia) was greater than 100 µM.
